Results on 1 compound are retold here after paper PMC9229894, “In Silico, In Vitro, and Pharmacokinetic Studies of UBMC-4, a Potential Novel Compound for Treating against Trypanosoma cruzi” (Pathogens, 2022).

Entries after “also recorded” stand apart in the source; their conditions may differ.

One series concerns T. cruzi trypomastigotes. Description: Flow cytometry of apoptosis-like markers in trypomastigotes. It counts as cell-based, Trypanosoma cruzi. The following applies: 10 µM; for DNA damage (hypodiploidy), % of trypomastigote population: time not given. The method, then: Apoptosis-like markers were analyzed by triple staining using 3,3′-dihexyloxacarbocyanine (DiOC6), propidium iodide (PI), and Hoechst from Thermo Fisher Scientific to determine the change of mitochondrial membrane potential (ΔΨm), cell membrane damage, and impairment of cell cycle, respectively. All readings were performed on a BD FACSCanto II 4/2/2 Sys IVD flow cytometer, and data obtained were analyzed using the FlowJo7.6.2 software. Differences between treatments were determined by a two-way ANOVA for multiple comparisons with 95% significance using GraphPad Prism 8. In all cases, 20 µL of parasites (5 × 10^6/mL) were stained per treatment with 300 µL of Hanks’ balanced saline solution (HBSS) and 10 µL of the staining mix containing […], 0.5 µL of 70 nM DiOC6, and 0.5 µL of 10 mg/mL Hoechst. Subsequently, parasites were incubated at room temperature for 15 min until reading.
The same markers mentioned above were used for T. cruzi trypomastigotes. A total of 1 × 10^6 trypomastigotes were centrifuged at 1800 RCF for 5 min to remove the culture medium. Parasites were cultured at […] in PBS or 10% FBS-supplemented DMEM with or without 10 µM UBMC-4, 10 µM chloroquine, and 10 µM UBMC-4/chloroquine for 2 h and 5 h. All experiments were compared to a culture setup using bz as control compound. Three biological replicates and three experimental replicates were applied to data collected at each time point for experimental conduction of every portion of the study. In all cases, ANOVA was applied for multiple comparisons after determining that data were normal.
Background: Flow cytometry measures light scatter and fluorescence of single cells or particles in a stream.

Series [1] is described as follows: Cytotoxicity, MTT method, HepG2. It counts as cell-based. The following applies: human, HepG2 cells, read-out: LC50 median lethal concentration HepG2. The method, then: Cytotoxicity of UBMC-4 was tested in HepG2, CaCo2, and huMDM cell lines according to the effect on cell growth determined by the MTT microenzimatic method, as described by others. Briefly, 2.0 × 10^4 U-937 and huMDM or 2.5 × 10^4 HepG2 and CaCo2 cells were dispensed in 200 µL into each well of a 96-well tissue culture plate containing the corresponding culture medium. Then, 100 µL/well of each compound at a concentration of […] were added and plates were incubated at 37 °C, 5% CO2. After 72 h of incubation, 20 μL of MTT (Sigma-Aldrich, St Louis, MO, USA) were added to each well and plates were incubated for 3 h at 37 °C, 5% CO2. […] The concentration of formazan was determined at 570 nm in a spectrophotometer (Varioskan Flash Multimode Reader, Thermo Scientific, Waltham, MA, USA). […] Cytotoxicity was determined according to the percentages of viability and cell growth inhibition obtained for each compound, bz, doxorubicin, or medium alone. Non-specific absorbance was corrected by subtracting the OD of the blank (culture medium). Percentages of mortality were calculated using equation, as follows: % mortality = 100 − [(O.D. of treated cells)/(O.D. of non-treated cells)] × 100. The half maximal effective concentration (EC50) was calculated by the linear regression model Probit using Graphpad Prism software.

The next series has as its system T. cruzi epimastigotes. Description: Scanning and transmission electron microscopy of epimastigotes under nutritional stress. It counts as cell-based, Trypanosoma cruzi. The conditions noted are these: 10 µM, nutritional stress (PBS) 6 h. On the procedure: Epimastigotes untreated and treated with 10 uM of UBMC-4 under nutritional stress conditions (culture medium substitution for PBS for 6 h) were fixed for 2 h using 2.5% glutaraldehyde in cacodylate buffer 0.1 M. Parasites adhered for 10 min onto coverslips previously coated with 0.1% poly-L-lysin and subsequently washed with cacodylate buffer and dehydrated using 30%, 50%, 70%, and 90% (v/v) acetone for 5 min on each incubation. Subsequently, the cells were critically dried under CO2 and attached to the heel of the SEM instrument. Finally, samples were coated with a 20 nm-thick gold layer and analyzed in a Jeol JSM6010Plus-LA scanning electron microscope at 20 kV. For TEM, parasites were fixed for 2 h with glutaraldehyde and cacodylate buffer and then treated for 1 h with 1% OsO4 diluted in the same buffer. Parasites were dehydrated as above and then embedded in PolyBed-812 resin. Ultrathin sections were collected in copper grids and stained with 5% aqueous uranyl acetate and lead citrate. Samples were examined in a Jeol JEM-1400plus transmission electron microscope at 80 kV.

Another series is described as follows: Solubility remark. It counts as physicochemical.

In the case of `Oc1ccc(-c2nc(-c3ccc4sc5ccccc5c4c3)c(-c3ccccc3)[nH]2)cc1` [UBMC-4, 4-(4-dibenzo-[b,d]-thien-2-yl-5-phenyl-1H-imidazol-2-yl)phenol], the “mitochondrial membrane potential change” value in the series with T. cruzi trypomastigotes (normal nutritional conditions, 2 h) is given as “remained intact (no hyper- or depolarization)”. For the same compound, the “cell membrane permeability, % of trypomastigote population” value with T. cruzi trypomastigotes (normal nutritional conditions, 5 h) was 2.2%; in the series on T. cruzi trypomastigotes (nutritional stress, 5 h), 36%. The “DNA damage (hypodiploidy), % of trypomastigote population” value is listed as 23% in the series with T. cruzi trypomastigotes (normal nutritional conditions) and 54% in the series with T. cruzi trypomastigotes (nutritional stress). Also, the “Ψm depolarization, % of trypomastigotes” value worked out at 32% in the series on T. cruzi trypomastigotes (nutritional stress, 2 h) and 40% with T. cruzi trypomastigotes (nutritional stress, 5 h). The CC50 at 72 h in series [1] is more than 40 µM. For the same compound, the “morphology and ultra-structure changes (SEM, TEM)” value in the series on T. cruzi epimastigotes was “progressive alterations such as flagellum inactivation, cell size reduction, nuclear structure alteration, condensation of chromatin towards the nuclear periphery, vacuole formation, mitochondrial swelling with kinetoplast integrity loss; also recorded: non-reversible morphological damage”. Also, the solubility entry in “Solubility remark” is “slight solubility problems”.
